In patent US20030134398A1, “Mitomycin biosynthetic gene cluster” (priority 2001, published 2003):
Values joined by “and” are separate entries in the source; they are usually repeats but may differ in a detail not shown here. Identical values can stand only once. Like-named read-outs stand apart in the source and are kept apart here.

Key:
[1] = biological target: T1, MitM (Streptomyces lavendulae, UniProt Q9X5Q9); assay type: biochemical, S. lavendulae; details: Example 4; with SAM
[2] = biological target: T1, MitM; test: Enzyme assay and kinetic measurement, aziridine N-methyltransferase (Example 5); assay type: biochemical, S. lavendulae; details: for conversion of candidate substrate by MitM: in the presence of SAM, TLC/HPLC
Description: (§1) pDHS7801 and pDHS7802 were transforned into E. coli BL21 (DE3) strain for the overexpression of MitM and MitN, respectively. E. coli cells were grown at 37° C. in NZCM broth containing 50 μg/ml kanamycin until OD600=0.6. Expression of MitM (or MitN) was induced by adding IPTG to a final concentration of 0.1 mM and reducing the temperature to 25° C. After incubating the culture overnight, cells were harvested, suspended in ice-cooled lysis buffer (50 mM NaH2PO4, pH 8.0; 300 mM NaCl; 10 mM imidazole), and lysed by sonication (6×10 seconds with 10 second pauses at 200-300 W). The supernatant collected by centrifuging the lysate at 10,000 g at 4° C. was used to pass through a Qiagen Ni-NTA column as specified by the manufacturer. The column was […] twice with wash buffer (50 mM NaH2PO4, pH 8.0; 300 mM NaCl; 20 mM imidazole) followed by dissolving the protein in elution buffer (50 mM NaH2PO4, pH 8.0; 300 mM NaCl; 250 mM imidazole). The protein eluted from the column was then precipitated with 60% ammonia sulfate, desalted by passing through a Pharmacia PD-10 column, and dissolved in 50 mM pH7.4 potassium buffer with 1 mM PMSF. The protein concentration was determined using the Bradford Assay with BSA as the standard.
(§2) The reactions were incubated at 30° C. for 30 minutes and were terminated by twice equal volume of ethyl acetate extraction.
(§3) The calculations were carried out using Kcat computer program by fitting the data to a Michaelis-Menton equation by linear regression.

[3] = biological target: MitN (Streptomyces lavendulae, UniProt Q9X5Q8); test: as above; assay type: biochemical, S. lavendulae; details: for conversion of candidate substrate by MitN: in the presence of SAM, TLC/HPLC
Description: as §1, §2, §3

[4] = test system: S. lavendulae wild-type; test: Resistance of S. lavendulae strains to MC, plate count; assay type: cell-based, Streptomyces lavendulae
Source text: To establish a physiological role for MCT in S. lavendulae, the corresponding gene (mct) was inactivated by insertion of the aphII gene from transposon Tn5 to give pDHS7704.

[5] = test system: E. coli strain PJS102 (mct expressing); test: MC resistance phenotype of E. coli, plate count; assay type: cell-based
Description: Construction of mct expression plasmid. For the construction of the E. coli expression plasmid NdeI and HindIII sites were introduced at the translational start codon and downstream of the translational stop codon of mct, respectively. […] The PCR was carried out using 2.5 U of Taq polymerase, 0.4 μg of each primer, 1 μg of pDHS7661 DNA as template, […] each of dATP-dGTP-dCTP-dTTP, 1.5 mM MgCl2, and 10 μl of 10×Promega PCR buffer in a total volume of 100 μl .
(§4) The cultures were grown overnight at 37° C. and colony-forming units (CFUs) were determined.

[6] = test system: E. coli BL21 (DE3)::pET17b (vector control)
Description: as §4

[7] = test system: E. coli strain PJS103 (mct-mrd co-expressing)
Description: Construction of mct-mrd co-expression plasmid. […] The fragment contained the mrd gene under the control of the T7 promoter, including transcriptional terminator sequences (rrnB T1) upstream and downstream of mrd.
as §4

[8] = test system: E. coli strain PJS102; test: [^3H]-MC uptake assay; assay type: cell-based; details: at 5 minutes; [^3H]-MC 0.022 μg/ml
Description: (§5) [^3H]-MC uptake assay of strains PJS102 and PJS103. [^3H]-MC was obtained from Kyowa Hakko Kogyo, Ltd. Uptake studies were performed for whole cells of PJS100, PJS102, PJS103 and E. coli BL21 (DE3)::pT7SC and pET17b. PJS100, PJS102, and PJS103 as well as vectoronly cultures were cultured (37° C.) in 5 ml of NCZYM medium with IPTG added to a final concentration of 1 mM (at approximately 3 hours growth). At 9 hours (late exponential phase), cells were harvested by centrifugation and resuspended in 1 ml NCZYM broth (5×concentration). The concentrated suspension of late-exponential growth phase cells was exposed to [^3H]-MC (59 Ci/mmol) at a final concentration of 0.022 μg/ml (0.0655 nmol). Aliquots (100 μl) were removed at frequent intervals, placed on […] GF/C filters (Whatman International, Maidstone, U.K.) and washed once with 6 ml of 0.85% NaCl poured over the filters under vacuum pressure. Additional aliquots were simultaneously removed for determination of protein content (protein assay kit, Bio-Rad Laboratories, Richmond, Calif.). Radioactivity on the filters was quantified using a Beclkan LS7000 scintillation counter. Results were expressed as nanograins of mitomycin per milligram of cell protein.
(§6) MC uptake by E. coli cells expressing mct, mrd or mct/mrd. Since the deduced amino acid sequence of the mct gene was similar to antibiotic export proteins, reduced accumulation of MC in MCT-expressing cells would be expected. An assay, modeled after experiments used to study tetracycline efflux-mediated resistance in E. coli (Levy and McMurry, 1978), was designed to study the uptake of [^3H]-MC by the susceptible vector control and resistant mct, mrd and mct/mrd expressing E. coli strains.

[9] = test system: E. coli strain PJS100; test: [^3H]-MC uptake assay; assay type: cell-based; details: at 30 minutes
Description: as §5, §6

[10] = test system: E. coli BL21(DE3)::pET17b vector control strain; test: [^3H]-MC uptake assay; assay type: cell-based; details: [^3H]-MC 0.022 μg/ml
Description: as §5, §6

[11] = test system: E. coli strain PJS103; test: [^3H]-MC uptake assay; assay type: cell-based
Description: as §5, §6

[12] = test system: E. coli strain PJS100 (mrd expressing); test: MC resistance phenotype of E. coli, plate count; assay type: cell-based
Source text: MC resistance phenotppe of E. coli.

[13] = test system: 31-O-desmethylimmunomycin O-methyltransferase (DIMT); details: read-out: Km for SAM; cited from earlier work
[14] = biological target: carminomycin O-methyltransferase (CMT) (Streptomyces sp., UniProt Q55216); details: read-out: Km for SAM; cited from earlier work
[15] = biological target: macrocin O-methyltransferase (MOMT) (Streptomyces fradiae, UniProt Q9S4D5); details: read-out: Km for SAM; cited from earlier work
[16] = biological target: 31-O-demethylFK506 O-methyltransferase (FKMT) (Streptomyces tacrolimicus, UniProt P74838); details: read-out: Km for SAM; cited from earlier work
[17] = biological target: demethylmacrocin O-methyltransferase (DMOMT) (Streptomyces fradiae, UniProt Q9ZHQ4); details: read-out: Km for SAM; cited from earlier work
[18] = test system: C[S+](CC[C@H](N)C(=O)O)C[C@H]1O[C@@H](n2cnc3c(N)ncnc32)[C@H](O)[C@@H]1O; test: purified protein, by the assay type

## COC1=C(C)C(=O)C2=C(C1=O)[C@@H](COC(N)=O)[C@H]1[C@H]3N[C@H]3CN21 [9a-demethoxy mitomycin A]
[1]
  enzymatic conversion (methylation) by MitM: methylate specifically the aziridine nitrogen

## COC1=C(C)C(=O)C2=C(C1=O)[C@@H](COC(N)=O)[C@@]1(OC)[C@H]3N[C@H]3CN21 [MA, mitomycin A]
[2]; MitM, pH 7.4, SAM fixed 200 μM
  Vmax for MA: 57.4 ± 4.2 nmol/mg/min
[2]
  conversion of candidate substrate by MitM: new product was formed
[2]; read-out: Km for MA, MitM, pH 7.4, SAM fixed 200 μM, MA 30-300 μM
  Km: 169 µM
[3]; MitN, pH 7.4, SAM fixed 200 μM
  Vmax for MA: 75.9 ± 2.4 nmol/mg/min
[3]
  conversion of candidate substrate by MitN: new product was formed
[3]; read-out: Km for MA, MitN, pH 7.4, SAM fixed 200 μM, MA 30-300 μM
  Km: 94.7 µM and 95 µM
[1]
  enzymatic conversion (methylation) by MitM: methylated at the aziridine nitrogen

## CO[C@@]12[C@H](COC(N)=O)C3=C(C(=O)C(C)=C(N)C3=O)N1C[C@@H]1N[C@@H]12 [MC, mitomycin C]
[4]
  MC resistance level of the wild-type S. lavendulae: > 150 μg(ml
[4]; MC 40 μg/ml
  Plate count CFU/ml: 5.3 × 10^3 CFU/ml
[4]; MC 100 μg/ml
  Plate count CFU/ml: 2.0 × 10^3 CFU/ml
[5]; MC 0.5 μg/ml
  Plate count CFU/ml: 2.1 × 10^5 CFU/ml
[5]; MC 1.0 μg/ml
  Plate count CFU/ml: 5.9 × 10^4 CFU/ml
[5]; MC 2.5 μg/ml
  Plate count CFU/ml: 2.0 × 10^2 CFU/ml
[5]; MC 5.0 μg/ml
  Plate count CFU/ml: 0.0 CFU/ml
[6]; MC 0.01 μg/ml
  Plate count CFU/ml: >10^7 CFU/ml
[6]; MC 0.1 μg/ml
  Plate count CFU/ml: 7.3 × 10^3 CFU/ml
[6]; MC 0.5 μg/ml
  Plate count CFU/ml: 3.2 × 10^2 CFU/ml
[6]; MC 1.0 μg/ml
  Plate count CFU/ml: 0.0 CFU/ml
[7]; MC 80 μg/ml
  Plate count CFU/ml: 1.4 × 10^5 CFU/ml
[7]; MC 100 μg/ml
  Plate count CFU/ml: 9.6 × 10^3 CFU/ml
[7]; MC 150 μg/ml
  Plate count CFU/ml: 3.0 × 10^1 CFU/ml
[8]
  MC accumulation as % of the susceptible control: 25%
[9]
  MC accumulation, % higher than the drug-sensitive vector control: 42%
[10]
  time at which MC accumulation reaches maximum level: 5 min
[11]; at 5 minutes, [^3H]-MC 0.022 μg/ml
  MC accumulation as % of E. coli cells bearing vector alone: 35%
[11]; over the course of the experiment
  MC accumulation, % greater than strain PJS102: about 23%
[12]; MC 1.0 μg/ml
  Plate count CFU/ml: 3.3 × 10^6 CFU/ml
[12]; MC 5.0 μg/ml
  Plate count CFU/ml: 2.7 × 10^6 CFU/ml
[12]; MC 10 μg/ml
  Plate count CFU/ml: 6.1 × 10^5 CFU/ml
[12]; MC 20 μg/ml
  Plate count CFU/ml: 2.5 × 10^5 CFU/ml
[12]; MC 30 μg/ml
  Plate count CFU/ml: 5.0 × 10^2 CFU/ml
[12]; MC 60 μg/ml
  Plate count CFU/ml: 0.0 CFU/ml
[2]
  conversion of candidate substrate by MitM: no conversions were detected
[3]
  conversion of candidate substrate by MitN: no conversions were detected
[1]
  enzymatic conversion (methylation) by MitM: no conversion products were observed

## CC1=C(N)C(=O)C2=C(C1=O)N1C[C@H]3[C@H](N3C)[C@]1(O)[C@H]2COC(N)=O (stereo partly shown) [MD, mitomycin D]
[2]
  conversion of candidate substrate by MitM: no conversions were detected
[3]
  conversion of candidate substrate by MitN: no conversions were detected
[1]
  enzymatic conversion (methylation) by MitM: no conversion products were observed

## C=C1C2=C(C(=O)C(C)=C(OC)C2=O)N2C[C@H]3[C@H](N3C)[C@]12O (stereo partly shown) [MH, mitomycin H]
[2]
  conversion of candidate substrate by MitM: no conversions were detected
[3]
  conversion of candidate substrate by MitN: no conversions were detected

## COC1=C(C)C(=O)C2=C(C1=O)[C@H](COC(N)=O)[C@@]1(O)[C@@H]3[C@H](CN21)N3C (stereo partly shown) [Mitomycin B, mitomycin B]
[7]
  resistance of strain PJS103 to mitomycin B: high-level resistance
[7]; Mitomycin B tested at a concentration of 15 μg/ml
  Plate count CFU/ml: >10^7d CFU/ml
[12]; Mitomycin B tested at a concentration of 1.0 μg/ml
  Plate count CFU/ml: >10^7b CFU/ml
[2]
  conversion of candidate substrate by MitM: no conversions were detected
[3]
  conversion of candidate substrate by MitN: no conversions were detected
[1]
  enzymatic conversion (methylation) by MitM: no conversion products were observed

## C[S+](CC[C@H](N)C(=O)O)C[C@H]1O[C@@H](n2cnc3c(N)ncnc32)[C@H](O)[C@@H]1O (stereo partly drawn) [SAM, S-adenosyl-L-methionine]
[13]
  Km: 13 µM
[14]
  Km: 25 µM
[15]
  Km: 23 µM
[16]
  Km: 28 µM
[17]
  Km: 111 µM
[2]; MitM, pH 7.4, MA fixed 200 μM
  Vmax for SAM: 29.8 ± 4.5 nmol/mg/min
[3]; MitN, pH 7.4, MA fixed 200 μM
  Vmax for SAM: 49.4 ± 5.3 nmol/mg/min

## MitM (Streptomyces lavendulae)
[18]; other: MitM, 400 μM mitomycin A, pH 7.0
  Km: 30 µM
[18]; other: MitM, pH 7.4, MA fixed 200 μM, SAM 40-400 μM, pH 7.4
  Km: 22.8 µM and 23 µM

## MitN (Streptomyces lavendulae)
[18]; other: MitN, pH 7.4, MA fixed 200 μM, SAM 40-400 μM, pH 7.4
  Km: 86.6 µM and 87 µM

## mitomycin G
[1]
  enzymatic conversion (methylation) by MitM: no conversion products were observed
